From patent US11299453B2 (Universität zu Köln, priority 2017, dated 2022) come the findings set out here.

Holding throughout (type): cell-based
Data set [1] has as its system contaminating colony-forming PSCs in unpurified EBs of murine iPSCs. Put plainly: Colony formation assay after treatment of unpurified EBs. The settings on record: day 9 to day 16: SM6 1 μM then 5 μM from day 14; puromycin 8 μg/ml. As for the experimental part: (§1) Aiming at complete elimination of remaining PSCs in PSC-derived cell aggregates, murine cardiac clusters were pre-purified with 2-4 μg/ml puromycin from day 9 until day 14 of differentiation in order to prevent complete removal of PSCs and then treated with SM6 for 2 days to assess its potential for removal of contaminating PSCs in the absence of puromycin. After treatment, cardiac clusters were dissociated with 0.25% trypsin-EDTA supplemented with 50 U/ml of DNase I and the level of PSC contamination was determined using colony formation assay, flow cytometry for SSEA-1 and RT-PCR for Oct4. In colony formation assays 2×10^5 cells were plated on a 6 cm cell culture dish containing MEF and cultured in maintenance medium supplemented with 1000 U/ml of mLIF for 7-10 days. Developing PSC colonies on MEF plates were quantified and visualized with 1% crystal violet (Fluka Analytical, St. Louis, USA) diluted in methanol (Applichem).
Purifying the whole CM population including GFP-negative CMs in murine PSC-derived EBs was tested with SM6 as well. […] The percentage of CM population in EBs was monitored by flow cytometry and the amount of contaminating PSCs was quantified by colony formation assay as described above. Fluorescence images of PSC-derived cell aggregates were captured with a Zeiss Axiovert 200M fluorescence microscope and analyzed with Zeiss Axiovision 4.5 software. […]

In data set [2] the test system is pre-purified cardiac clusters of murine αPIG-AT25 iPSCs. Put plainly: Cell yield, flow cytometry and morphology of pre-purified miPSC cardiac clusters. As for the experimental part:
The differentiation of transgenic mPSCs was initiated in mass cultures as briefly described below. One million cells were transferred per non-adhering 10 cm dish with 14 ml differentiation medium composed of Iscove's Modified Dulbecco's Medium (IMDM) with GlutaMAX (Life Technologies) supplemented with 20% FBS, 1×NEAA and 100 μM β-ME. Embryoid bodies (EBs) from day 2 of differentiation were transferred in a 250 ml spinner flask (CELLSPIN 250, Integra Biosciences, Fernwald, Germany) with a density of 3×10^4 EBs per 200 ml of differentiation medium. On the first 2 days of differentiation medium was supplemented with 50 μg/ml L-ascorbic acid phosphate (AA, Wako pure chemicals industry, Japan) in order to promote the development of cardiac cells. For the selection of GFP-expressing CMs, 50 ml of the medium was exchanged with fresh differentiation medium and 8 μg/ml puromycin (Life Technologies) were supplemented on day 9 of differentiation. Two days later, the cardiac clusters were transferred on non-adhering 10 cm dishes with fresh differentiation medium containing 8 μg/ml puromycin. In the further course of differentiation medium was exchanged every 2-3 days. If not otherwise specified, the purification of GFP-positive CMs with puromycin was continued until day 16 of differentiation. For single cell analyses and transfer of PSC-derived CMs on cell culture plates, cardiac clusters were dissociated with 0.25% trypsin-EDTA (Life Technologies) supplemented with 50 U/ml DNase I (AppliChem, Darmstadt, Germany) for 20-30 min at 37° C. The mPSC-derived CMs were filtered through a polyamide membrane with […] pore size (Sefar, Heiden, Switzerland). Cell numbers were determined with a Neubauer hemocytometer and cells were stored on ice until further use.
as §1, with “In colony formation assays 2×10^5 cells were plated on a 6 cm cell culture dish containing MEF and cultured in maintenance medium supplemented with 1000 U/ml of mLIF for 7-10 days.” left out, “(Applichem). […]” for “(Applichem).”
Cells were measured with an Attune acoustic focusing cytometer (Life Technologies) and data was analyzed with the Attune Cytometric software v1.2.5 (Life Technologies). Marker expression was analyzed in a gated population of 10^4 viable cells. […]

Data set [3] has as its system colony forming PSCs in pre-purified cardiac clusters of murine ESC line αPIG44-D3. Put plainly: Colony formation assay after treatment of pre-purified mESC cardiac clusters. The note with it: 48 h. As for the experimental part:
as §1
To confirm the PSC-eliminating effect of the compound SM6, pre-purified cardiac clusters derived from transgenic murine ESC line αPIG44-D3 were also treated with SM6. The cells were differentiated in spinner flasks and incubated for 48 h with compound SM6 as described above with the exception that pre-purification was performed with 4 μg/ml of puromycin between day 9 and day 14, as schematically illustrated in FIG. 7a).

Data set [4] relates to unpurified EBs of murine iPSCs. Put plainly: Flow cytometry (cTnT) and cell yield of unpurified EBs. The note with it: for cTnT+ CM population / fold increase of CM purity (cTnT+) compared to DMSO-treated control / reduction of total cell yield relative to DMSO control: day 9 to day 16: SM6 1 μM then 5 μM from day 14, puromycin 8 μg/ml. As for the experimental part: Purifying the whole CM population including GFP-negative CMs in murine PSC-derived EBs was tested with SM6 as well. EBs from day 9 of differentiation were treated starting with 1 μM of SM6 for 5 days followed by treatment with 5 μM from day 14 until day 16 of differentiation. The percentage of CM population in EBs was monitored by flow cytometry and the amount of contaminating PSCs was quantified by colony formation assay as described above. Fluorescence images of PSC-derived cell aggregates were captured with a Zeiss Axiovert 200M fluorescence microscope and analyzed with Zeiss Axiovision 4.5 software.
Determination of CM purity in the cell population was performed by flow cytometric analysis. PSC-derived EBs or cardiac clusters were dissociated with 0.25% trypsin-EDTA. Dead cells were stained with LIVE/DEAD fixable dead cell stain kit (Life Technologies) prior to cell fixation using in 4% PFA for 15 min. Immunological staining of cardiac Troponin T (cTnT) was performed in order to detect the total CM population including GFP-negative CMs. […] An anti-cTnT mouse antibody (sc-20025, Santa Cruz, Dallas, USA) and the corresponding isotype control (sc-3878, Santa Cruz) were diluted 1:50 in 0.8% BSA in PBS with 1% saponin and incubated for 30 min at 4° C., respectively. After washing the cells with PBS, cells were incubated with an AF555-conjugated secondary antibody (1:100, A21422, Life Technologies) in 0.8% BSA and 1% saponin in PBS for 1 h at 4° C.
Cells were measured with an Attune acoustic focusing cytometer (Life Technologies) and data was analyzed with the Attune Cytometric software v1.2.5 (Life Technologies). Marker expression was analyzed in a gated population of 10^4 viable cells.
In order to determine whether it is possible to entirely replace puromycin pre-treatment with SM6 and thus circumvent the need for genetic manipulation of PSCs to enable CM selection, the SM6 was supplemented to the differentiation medium of miPSCs from day 9 onwards starting with a concentration of 1 μM which was increased to 5 μM from day 14 until day 16 of differentiation, as is schematically illustrated in FIG. 8a). Control cells received 0.025% DMSO or 8 μg/ml puromycin during this time period (day 9 to day 16 of differentiation).

Molecules are shown by their SMILES.

For the molecule `Oc1ccccc1CN[C@@H]1CCCC[C@H]1NCc1ccccc1O` [SM6, (1R,2R)-N,N′-di(2-hydroxybenzyl)-1,2-diaminocyclohexane], the “reduction of contaminating colony-forming PSCs” value in data set [1] is listed as 98.88±1.04%. Besides, the “morphology and contractility of cardiac clusters” value in data set [2] (1 μM, 5 μM and 10 μM, 48 hours) is “not compromised”. Further, in data set [2] (10 μM, flow cytometry), the “fraction of GFP−/cTnT− non-CMs” value is 7%. In addition, the “fraction of GFP+/cTnT+ CMs of the viable cell population” value in data set [2] (increasing concentrations of SM6, flow cytometry) is listed as “up to 74%”. Besides, in data set [3] (1 μM), the “reduction of the number of ESC-derived colonies compared to DMSO control” value (shortened to “reduction of the number … to DMSO control”) was found to be 20.03±26.95%. The “reduction of the number … to DMSO control” value in data set [3] (5 μM) is reported as 93.75±3.45%. Moreover, the “reduction of the number … to DMSO control” value in data set [3] (10 μM) is 96.23±0.75%. Moreover, the “fold higher yield of cTnT+ CMs compared to the treatment with puromycin” value in data set [4] (SM6 1 μM then 5 μM from day 14, p<0.01) is 2.72±1.61 fold. For the same molecule, in data set [4], the “cTnT+ CM population” value turned out to be 77.57±12.26%, the “fold increase of CM purity (cTnT+) compared to DMSO-treated control” value is reported as 2.56±1.25 fold and the “reduction of total cell yield relative to DMSO control” value is recorded as 56.6±10.44%. Besides, the “CM yield higher compared to the DMSO-treated control group” value in data set [4] (in three out of five experiments) is given as 31-86%.

As for `COc1ccc(C[C@H](N)C(=O)N[C@H]2[C@@H](O)[C@H](n3cnc4c(N(C)C)ncnc43)O[C@@H]2CO)cc1` [puromycin, reference compound], the “reduction of contaminating colony-forming PSCs” value in data set [1] came to 97.55±4.02%. Besides, the “reduction of total cell yield compared to DMSO-treated control” value in data set [2] (puromycin 8 μg/ml) is 20.55±14.43%. Further, the “reduction of the number … to DMSO control” value in data set [3] (puromycin 8 μg/ml) was found to be 47.83±24.89%. For the same molecule, in data set [4], the “cTnT+ CM population” value is on record as 93.26±3.05%, the “fold increase of CM purity (cTnT+) compared to DMSO-treated control” value stood at 3.08±1.42 fold and the “reduction of total cell yield relative to DMSO control” value turned out to be 92.17±3.53%.
